For orientation: IC50 means the concentration needed to halve the response being measured.

Here are results for 4 molecules from patent US5968958A, “5-Methanesulfonamido-3H-isobenzofuran-1-ones as inhibitors of cyclooxygenase-2” (Merck Frosst Canada, Inc., priority 1997, dated 1999).

Each structure is given as a SMILES string. Read-outs that look alike come from different tables or passages of the source. Where only a bound is given, the exact number is not on record here.

The target in one assay is T1, cyclooxygenase-2 (Homo sapiens, UniProt P35354).
T1 construct: human osteosarcoma 143 cells (which specifically express cyclooxygenase-2); endogenous in cells; host or cells: human osteosarcoma 143 cells
T1 sequence (P35354 18-604): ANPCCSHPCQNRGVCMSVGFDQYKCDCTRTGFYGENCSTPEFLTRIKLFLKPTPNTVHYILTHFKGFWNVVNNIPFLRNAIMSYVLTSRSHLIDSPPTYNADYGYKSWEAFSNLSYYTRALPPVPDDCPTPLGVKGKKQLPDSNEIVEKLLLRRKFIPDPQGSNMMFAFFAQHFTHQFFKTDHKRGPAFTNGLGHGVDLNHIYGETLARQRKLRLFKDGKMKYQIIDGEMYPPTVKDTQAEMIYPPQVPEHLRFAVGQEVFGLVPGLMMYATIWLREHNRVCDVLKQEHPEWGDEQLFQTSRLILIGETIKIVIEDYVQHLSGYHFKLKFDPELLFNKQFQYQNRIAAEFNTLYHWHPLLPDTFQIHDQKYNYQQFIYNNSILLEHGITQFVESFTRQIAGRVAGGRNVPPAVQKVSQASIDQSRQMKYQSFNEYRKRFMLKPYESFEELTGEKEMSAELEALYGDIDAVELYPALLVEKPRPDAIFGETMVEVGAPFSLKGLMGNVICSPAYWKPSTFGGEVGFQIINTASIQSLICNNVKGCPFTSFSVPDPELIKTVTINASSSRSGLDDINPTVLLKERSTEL
Description: Whole cell cyclooxygenase assay, PGE2 synthesis in human osteosarcoma 143 cells (COX-2). Format: cell-based. As for the experimental part:
(§1) Inhibition of Cyclooxygenase Activity
(§2) Compounds are tested as inhibitors of cyclooxygenase activity in whole cell cyclooxygenase assays. Both of these assays measure prostaglandin E2 synthesis in response to arachidonic acid, using a radioimmunoassay. Cells used for these assays are human osteosarcoma 143 cells (which specifically express cyclooxygenase-2) and human U-937 cells (which specifically express cyclooxygenase-1). In these assays, 100% activity is defined as the difference between prostaglandin E2 synthesis in the absence and presence of arachidonate.
(§3) In the assay, inhibition is determined by measuring the amount of prostaglandin E2 (PGE2) synthesized in the presence of arachidonic acid, cyclooxygenase-1 or cyclooxygenase-2 and a putative inhibitor. The IC50 values represent the concentration of putative inhibitor required to return PGE2 synthesis to 50% of that obtained as compared to the uninhibited control.

In the next assay the target is T2, cyclooxygenase-1 (Homo sapiens, UniProt P23219).
T2 construct: human U-937 cells (which specifically express cyclooxygenase-1); endogenous in cells; host or cells: human U-937 cells
Description: Whole cell cyclooxygenase assay, PGE2 synthesis in human U-937 cells (COX-1). Format: cell-based. As to conditions: inhibition of PGE2 production, arachidonic acid, radioimmunoassay. As for the experimental part: as §1, §2, §3

The subject of a further assay is Rat Paw edema. The assay can be described thus: Rat Paw Edema Assay (carrageenan). Format: in vivo, rat (male Sprague-Dawley). As to conditions: po, 1 hr before subplantar carrageenan (500 μg per paw), paw volume increase at 3 h. As for the experimental part:
Rat Paw Edema Assay--Protocol
Male Sprague-Dawley rats (150-200 g) are fasted overnight and are given po either vehicle (1% methocell or 5% Tween 80) or a test compound. One hr later, a line is drawn using a permanent marker at the level above the ankle in one hind paw to define the area of the paw to be monitored. The paw volume (V0) is measured using a plethysmometer (Ugo-Basile, Italy) based on the principle of water displacement. The animals are then injected subplantarly with 50 μl of 1% carrageenan solution in saline (FMC Corp, Maine) into the paw using an insulin syringe with a 25-gauge needle (i.e., 500 μg carrageenan per paw). Three h later, the paw volume (V3) is measured and the increases in paw volume (V3 -V0) are calculated. The animals are sacrificed by CO2 asphyxiation and the absence or presence of stomach lesions scored. Data is compared with the vehicle-control values and percent inhibition calculated. All treatment groups are coded to eliminate observer bias.

Setting [1] is: inhibition of PGE2 production, human osteosarcoma 143 cells, arachidonic acid, radioimmunoassay, read-out: Osteosarcoma cells (COX-2) IC50.

T2 sequence (P23219 24-599): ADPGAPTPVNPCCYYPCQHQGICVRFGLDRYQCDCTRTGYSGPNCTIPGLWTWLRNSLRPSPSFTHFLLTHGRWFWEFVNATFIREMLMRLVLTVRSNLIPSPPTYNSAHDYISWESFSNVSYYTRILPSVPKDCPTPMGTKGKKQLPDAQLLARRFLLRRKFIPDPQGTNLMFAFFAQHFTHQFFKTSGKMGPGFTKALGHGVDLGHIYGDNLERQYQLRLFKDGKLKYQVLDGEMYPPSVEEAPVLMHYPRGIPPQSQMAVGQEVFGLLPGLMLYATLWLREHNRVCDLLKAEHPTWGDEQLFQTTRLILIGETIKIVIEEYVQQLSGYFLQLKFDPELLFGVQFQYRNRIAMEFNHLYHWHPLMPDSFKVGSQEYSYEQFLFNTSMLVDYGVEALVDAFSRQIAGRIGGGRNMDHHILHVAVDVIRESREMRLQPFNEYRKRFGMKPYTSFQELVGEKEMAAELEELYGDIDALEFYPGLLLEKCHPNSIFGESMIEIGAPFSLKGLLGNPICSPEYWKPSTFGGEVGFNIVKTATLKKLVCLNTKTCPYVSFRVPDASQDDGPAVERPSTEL

Take `CS(=O)(=O)Nc1cc2c(cc1Sc1nccs1)C(=O)OC2` [Example 3, 6-(2-Thiazolythio)-5-methanesulfonamido-3H-isobenzofuran-1-one]: the IC50 was 140 nM at cyclooxygenase-2 (setting [1]) and > 100000 nM against cyclooxygenase-1.
In the case of `CCc1csc(Sc2cc3c(cc2NS(C)(=O)=O)COC3=O)n1` [Example 1, 6-(4-Ethyl-2-thiazolythio)-5-methanesulfonamido-3H-isobenzofuran-1-one], the IC50 against cyclooxygenase-2 was 6 nM; against cyclooxygenase-1 it was > 100000 nM. Further, the ED30 in the assay with Rat Paw edema amounted to 0.16 mg/kg.
Take `Cc1csc(Sc2cc3c(cc2NS(C)(=O)=O)COC3=O)n1` [Example 4, 5-Methanesulfonamido-6-(4-methyl-2-thiazolythio)-3H-isobenzofuran-1-one]: the IC50 is 36.7 nM on cyclooxygenase-2 (setting [1]) and > 100000 nM against cyclooxygenase-1. The same molecule registered an ED30 with Rat Paw edema of 1 mg/kg.
For `CS(=O)(=O)Nc1cc2c(cc1Sc1ccc(Cl)cn1)C(=O)OC2` [Example 2, 6-(5-Chloro-2-pyridylthio)-5-methanesulfonamido-3H-isobenzofuran-1-one], in that order: 33 nM, > 100000 nM and 1.3 mg/kg.
